According to paper PMC9022229, “Induction of Paraptosis by Cyclometalated Iridium Complex-Peptide Hybrids and CGP37157 via a Mitochondrial Ca^2+ Overload Triggered by Membrane Fusion between Mitochondria and the Endoplasmic Reticulum” (Biochemistry, 2022):

Tested on: mitofusin 1 (MFN1)
Assay: Western blot analysis of MFN1 in Jurkat cells
Assay type: cell-based
Conditions: for MFN1 band intensity relative to absence of compound: Figure S8B, 12 h
Method: In a 1.5 mL Eppendorf tube, Jurkat cells (1.0 × 10^6 cells) were incubated in the presence of 4 ([…]), CGP37157 (100 μM for 0–24 h or 0–100 μM for 12 h), and celastrol (0–10 μM for 24 h or 1 μM for 0–24 h) at 37 °C under 5% CO2. After the cells had been washed twice with PBS, the proteins were extracted by using RIPA buffer (Nacalai Tesque) and quantified using a Pierce BCA Protein Assay Kit (Thermo Scientific). Proteins (7.5 μg/well) for MFNs and DRP1 and proteins (5.0 μg/well) for GAPDH were used for sodium dodecyl sulfate–polyacrylamide gel electrophoresis (SDS–PAGE) (7.5% for MFNs and DRP1 and 10% for GAPDH) (Bio-Rad). After SDS–PAGE, the proteins were transferred to a polyvinylidene fluoride membrane (Merck Millipore) by using a semi dry blotter (Bio-Rad). The membrane was blocked with Blocking One solution (Nacalai Tesque) for 30 min at room temperature. After being blocked, the membrane was washed three times with 1× TBST and treated with primary antibodies overnight (at a dilution of 1/1000 for MFNs and DRP1 or 1/2000 for GAPDH) in a signal enhancer HIKARI-solution A (Nacalai Tesque). The membrane was washed three times with 1× TBST and treated with the anti-mouse or anti-rabbit IgG HRP-conjugated secondary antibody (at a dilution of 1/4000 for MFNs and DRP1 or 1/10000 for GAPDH) in 1× TBST for 60 min at room temperature. The protein signal was spotted with a Chemi-Lumi One Ultra solution (Nacalai Tesque) using the ChemiDoc MP system (Bio-Rad). […]

Structure (SMILES): O=C1CSC(c2ccccc2Cl)c2cc(Cl)ccc2N1 (stereo not drawn) [CGP37157]
- Expression level of MFN1 (Figure 11B) (CGP37157 100 μM, 1–6 h): weakly changed
- MFN1 band intensity relative to absence of compound (CGP37157 10 µM): 1.1
- MFN1 band intensity relative to absence of compound (CGP37157 20 µM): 1.1
- MFN1 band intensity relative to absence of compound (CGP37157 50 µM): 0.92
- MFN1 band intensity relative to absence of compound (CGP37157 80 µM): 0.80
- MFN1 band intensity relative to absence of compound (CGP37157 100 µM): 0.63
